Test results from publication PMC3170264 (Retrovirology, 2011).
pIC50: −log10 of the molar value.

Tests used:
wild-type HIV-2 = conditions: phenotypic susceptibility similar to that of HIV-1; cited from earlier work
HIV-2 IN (N1 to N3) = biological target: T1, HIV-2 IN (N1 to N3) (Human immunodeficiency virus type 2 subtype B, UniProt Q89928, I1218V/I1301V/I1372V/M1455R/N1185G/N1438H/R1202K/R1392Q/T1348V/T1383A/V1460M); assay: 3'-processing inhibition, INs from clinical isolates N1 to N3; format: biochemical; conditions: at concentrations up to 1 μM; data not shown
T1 construct: His-tag (pET-15b) (N); made in house; host or cells: Escherichia coli BL21-CodonPlus (DE3)-RIPL
T1 sequence (Q89928 1169-1464 N1185G/R1202K/I1218V/I1301V/T1348V/I1372V/T1383A/R1392Q/N1438H/M1455R/V1460M limits assumed): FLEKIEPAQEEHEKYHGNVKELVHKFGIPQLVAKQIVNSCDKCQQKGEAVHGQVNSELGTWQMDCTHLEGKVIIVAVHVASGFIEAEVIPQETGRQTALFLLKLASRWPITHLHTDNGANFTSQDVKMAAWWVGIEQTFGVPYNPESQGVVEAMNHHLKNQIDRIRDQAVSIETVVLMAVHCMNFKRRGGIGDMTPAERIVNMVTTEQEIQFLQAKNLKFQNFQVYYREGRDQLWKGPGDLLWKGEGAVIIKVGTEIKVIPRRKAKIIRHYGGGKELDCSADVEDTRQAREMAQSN
Method: The activity of wild-type and mutated INs was determined in vitro, as previously described. Briefly, oligonucleotides (ODN) mimicking the end of the U5 long terminal repeat of the viral genome were radiolabeled with T4 polynucleotide kinase (Biolabs, Ipswich, USA) and [γ-^32P] ATP (3,000 Ci/mmol) (Amersham, GE Healthcare, USA), then purified on a Sephadex G-10 column (GE Healthcare, USA). Double-stranded ODNs were obtained by mixing equimolar amounts of complementary strands in the presence of 100 mM NaCl.

HIV-2 N3 IN = biological target: T2, HIV-2 N3 IN (Human immunodeficiency virus type 2 subtype B, UniProt Q89928, A1457T/D1293E/D1331N/F1194Y/I1218V/I1301V/I1428V/K1172N/M1455R/N1185G/N1438H/Q1389K/R1202K/R1392Q/T1348A/T1383A); assay: strand transfer inhibition, IN from clinical isolate N3; format: biochemical; conditions: IN from RAL-naive patient N3; 200 nM IN; 37°C; Mg2+
T2 construct: His-tag (pET-15b) (N); made in house; host or cells: Escherichia coli BL21-CodonPlus (DE3)-RIPL
T2 sequence (Q89928 1169-1461 K1172N/N1185G/F1194Y/R1202K/I1218V/D1293E/I1301V/D1331N/T1348A/T1383A/Q1389K/R1392Q/I1428V/N1438H/M1455R/A1457T): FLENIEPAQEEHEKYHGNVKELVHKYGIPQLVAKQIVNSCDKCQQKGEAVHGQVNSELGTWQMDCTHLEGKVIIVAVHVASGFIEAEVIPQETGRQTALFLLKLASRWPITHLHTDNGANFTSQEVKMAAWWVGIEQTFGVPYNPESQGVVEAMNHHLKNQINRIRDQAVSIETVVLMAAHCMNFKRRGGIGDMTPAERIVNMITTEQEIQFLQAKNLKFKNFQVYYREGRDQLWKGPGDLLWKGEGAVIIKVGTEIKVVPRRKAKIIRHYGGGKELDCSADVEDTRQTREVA
Method: The ST reaction was performed using a ^32P-labeled oligonucleotide mimicking the preprocessed substrate. Drug concentrations are indicated above each lane. […] Activity is expressed as a % of control without drug. Experiments were repeated two times.
The HIV-2 ODN substrate sequences were: UA: 5'-[…]-3'; U5B: 5'-[…]-3'; U5B-2: 5'-[…] […]-3'.

**Q.** For `Cc1nnc(C(=O)NC(C)(C)c2nc(C(=O)NCc3ccc(F)cc3)c(O)c(=O)n2C)o1` [RAL, raltegravir], which “activity against wild-type HIV-2” value (wild-type HIV-2) is on record?
**A.** active

**Q.** And the “effect on 3' processing in vitro” value (HIV-2 IN (N1 to N3))?
**A.** no significant effect

**Q.** And the pIC50 (HIV-2 N3 IN)?
**A.** 7.32
